From patent publication US8765779B2, “Tricyclic derivatives and their pharmaceutical use and compositions” (Cephalon, Inc., priority 2009, dated 2014)
Structures can show the parent of a compound that is named as a salt.

Molecular target: T1, human 5-HT6 receptor (Homo sapiens, UniProt P50406)
T1 construct: host or cells: CHO-K1 cells, stably transfected; membranes prepared in house
Experiment: Human 5-HT6 Receptor Binding Assay ([3H]LSD displacement, scintillation beads)
Conditions: membranes of CHO-K1 cells with recombinant human 5-HT6, 4 nM [3H]LSD; Table 1, class symbols; read-out: h5-HT6 (Ki)

T1 sequence (P50406 whole entry): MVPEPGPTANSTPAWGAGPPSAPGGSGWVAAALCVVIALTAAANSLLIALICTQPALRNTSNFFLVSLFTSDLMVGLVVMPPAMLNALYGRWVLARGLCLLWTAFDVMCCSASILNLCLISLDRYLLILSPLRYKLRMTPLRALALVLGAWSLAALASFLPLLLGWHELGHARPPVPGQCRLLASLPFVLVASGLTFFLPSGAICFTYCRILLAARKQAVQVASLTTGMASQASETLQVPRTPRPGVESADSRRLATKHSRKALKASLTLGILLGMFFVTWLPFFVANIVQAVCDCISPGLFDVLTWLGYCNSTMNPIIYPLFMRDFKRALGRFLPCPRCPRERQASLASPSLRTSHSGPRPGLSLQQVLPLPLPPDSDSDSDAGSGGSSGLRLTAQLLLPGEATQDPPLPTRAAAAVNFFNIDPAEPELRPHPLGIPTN

Ki [nM]	Compound
< 500	O=S(=O)(c1ccc2c(c1)C1CCNCC1O2)c1ccc2ccccc2c1 (centres unmarked) [Example 175]
> 1000	COc1ccc(S(=O)(=O)c2ccc3oc4c(c3c2)CCNC4)cc1OC [Example 242]
< 500	O=S(=O)(c1ccc2c(c1)OC1CNCCC21)c1cccc(Cl)c1Cl (centres unmarked) [Example 162]
> 1000	O=S(=O)(c1cncc(C(F)(F)F)c1)c1ccc2c(c1)OC1CNCCC21 (centres unmarked) [Example 459]
> 1000	O=S(=O)(NCCc1ccccc1)c1ccc2c(c1)C1CCNCC1O2 (centres unmarked) [Example 855]
< 500	CCCCCOc1cccc(S(=O)(=O)c2ccc3c(c2)OC2CNCCC32)c1 (centres unmarked) [Example 557]
< 500	O=S(=O)(Oc1ccc2c(c1)C1CCNCC1O2)c1cccc2ccccc12 (centres unmarked) [Example 720]
< 500	O=S(=O)(Oc1ccc2c(c1)C1CCNCC1O2)c1ccccc1Cl (centres unmarked) [Example 711]
< 500	O=S(=O)(c1cccc(OCc2ccccn2)c1)c1ccc2c(c1)OC1CNCCC21 (centres unmarked) [Example 562]
> 1000	O=S(=O)(CC1CCCCC1)Oc1ccc2c(c1)OC1CNCCC21 (centres unmarked) [Example 690]
> 1000	O=[N+]([O-])c1ccc(S(=O)(=O)c2cccc3c2OC2CNCCC32)cc1 (centres unmarked) [Example 190]
< 500	COCC1(C)NCCc2c1oc1cc(S(=O)(=O)c3cccc(F)c3)ccc21 (centres unmarked) [Example 633]
< 500	O=S(=O)(c1ccc2c(c1)OC1CNCCC21)c1cccc2c1CCO2 (centres unmarked) [Example 418]
< 500	O=S(=O)(c1ccc2c(c1)OC1CNCCC21)c1cccc2c1OCCO2 (centres unmarked) [Example 457]
< 500	O=S(=O)(c1ccc(F)c(Cl)c1)c1ccc2c3c(oc2c1)CNCC3 [Example 193]
< 500	CC(C)c1ccc(S(=O)(=O)Oc2ccc3c(c2)OC2CNCCC32)cc1 (centres unmarked) [Example 795]
< 500	O=S(=O)(Nc1ccc2c(c1)C1CCNCC1O2)c1cc(Cl)cc(Cl)c1 (centres unmarked) [Example 828]
< 500	O=S(=O)(c1ccc2c(c1)OCCO2)c1ccc2c3c(oc2c1)CNCC3 [Example 200]
< 500	O=S(=O)(c1ccc2c(c1)OC1CNCCC21)c1cccc2cccnc12 (centres unmarked) [Example 333]
> 1000	O=S(=O)(Cc1ccccc1)Oc1ccc2c(c1)C1CCNCC1O2 (centres unmarked) [Example 697, 1,2,3,4,4a,9a-hexahydro[1]benzofuro[2,3-c]pyridin-6-yl phenylmethanesulfonate]

Ki [nM]	Compound
> 1000	O=S(=O)(Oc1ccc2c(c1)C1CCNCC1O2)c1cccc2cnccc12 (centres unmarked) [Example 745]
< 500	COc1cc(OC2CCCC2)cc(S(=O)(=O)c2ccc3c(c2)OC2CNCCC32)c1 (centres unmarked) [Example 586]
< 500	O=S(=O)(c1cccc(F)c1)c1ccc2oc3c(c2c1)CCNC3 [Example 244, 6-[(3-fluorophenyl)sulfonyl]-1,2,3,4-tetrahydro[1]benzofuro[2,3-c]pyridine]
< 500	O=S(=O)(Nc1ccc2c(c1)C1CCNCC1O2)c1c(Cl)nc2sccn12 (centres unmarked) [Example 818]
< 500	CN1CCC2c3ccc(S(=O)(=O)c4ccccc4)cc3OC2C1 (centres unmarked) [Example 607]
> 1000	[O-][S+](c1ccc2c(c1)OC1CNCCC21)c1cc(F)ccc1F (centres unmarked) [Example 142]
> 1000	O=S(=O)(Oc1ccc2c(c1)C1CCNCC1O2)c1ccccc1 (centres unmarked) [Example 696]
> 1000	O=S(=O)(CCc1ccccc1)Oc1ccc2c(c1)C1CCNCC1O2 (centres unmarked) [Example 755]
500 to 1000	COc1ccc(S(=O)(=O)c2ccc3c(c2)OC2CNCCC32)cc1F (centres unmarked) [Example 129]
< 500	O=S(=O)(Oc1ccc2c(c1)C1CCNCC1O2)c1cc2ccccc2s1 (centres unmarked) [Example 724]
< 500	O=S(=O)(Oc1ccc2c(c1)C1CCNCC1O2)c1ccc(-c2ccccc2)cc1 (centres unmarked) [Example 743]
< 500	Cc1cc(C)cc(S(=O)(=O)Oc2ccc3c(c2)C2CCNCC2O3)c1 (centres unmarked) [Example 705]
< 500	Cc1ccc(S(=O)(=O)c2ccc3c4c(oc3c2)CNCC4)cc1 [Example 204]
> 1000	O=S(=O)(c1ccc2c(c1)C1CCNCC1O2)N1CCC2CCCCC2C1 (centres unmarked) [Example 860]
< 500	O=S(=O)(c1ccc2c(c1)OC1CNCCC21)c1cccc(F)c1F (centres unmarked) [Example 411]
> 1000	COc1ccc(S(=O)(=O)c2ccc3c(c2)C2CCNCC2O3)cc1OC (centres unmarked) [Example 171]
< 500	COc1cc(F)cc(S(=O)(=O)c2ccc3c(c2)OC2CNCCC32)c1 (centres unmarked) [Example 420]
< 500	O=S(=O)(Oc1ccc2c(c1)C1CCNCC1O2)c1cc(Cl)cc(Cl)c1 (centres unmarked) [Example 739]
< 500	N#Cc1ccc(COc2cccc(S(=O)(=O)c3ccc4c(c3)OC3CNCCC43)c2)cc1 (centres unmarked) [Example 551]

Continued, compound first:

Compound	Ki [nM]
[O-][S+](c1ccc2oc3c(c2c1)CCNC3)c1cccnc1Cl (centres unmarked) [Example 445]	> 1000
CC12CCNCC1Oc1ccc(OS(=O)(=O)c3ccc(C(F)(F)F)cc3)cc12 (centres unmarked) [Example 778]	> 1000
CC12CCNCC1Oc1cc(S(=O)(=O)c3cccc(F)c3F)ccc12 (centres unmarked) [Example 488]	< 500
COc1cccc(S(=O)(=O)Oc2ccc3c(c2)C2(C)CCNCC2O3)c1 (centres unmarked) [Example 761]	> 1000
O=S(=O)(c1ccc2c3c(oc2c1)CNCC3)c1cccc(F)c1F [Example 432]	< 500
CC(C)(C)c1ccc(S(=O)(=O)Oc2ccc3c(c2)C2(C)CCNCC2O3)cc1 (centres unmarked) [Example 774]	> 1000
O=S(=O)(c1cccc(Cl)c1)c1ccc2c3c(oc2c1)CN(CCCO)CC3 [Example 601]	< 500
Cc1ccnc(S(=O)(=O)c2ccc3c(c2)OC2CNCCC32C)n1 (racemic) [Example 7, 4a-methyl-7-[(4-methylpyrimidin-2-yl)sulfonyl]-1,2,3,4,4a,9a-hexahydro[1]benzofuro[2,3-c]pyridine]	> 1000
CC(C)Oc1cccc(S(=O)(=O)c2ccc3c4c(oc3c2)C2(CCOCC2)NCC4)c1 [Example 44, 7-{[3-(propan-2-yloxy)phenyl]sulfonyl}-2′,3,3′,4,5′,6′-hexahydro-2H-spiro[1-benzofuro[2,3-c]pyridine-1,4′-pyran]]	< 500
O=S(=O)(c1cc(Cl)cc(Cl)c1)c1ccc2c3c(oc2c1)CNCC3 [Example 211, 7-[(3,5-dichlorophenyl)sulfonyl]-1,2,3,4-tetrahydro[1]benzofuro[2,3-c]pyridine]	< 500
O=S(=O)(c1ccc2c3c(oc2c1)CNCC3)c1ccccc1Cl [Example 230]	< 500
CC1(C)CNCc2oc3cc(S(=O)(=O)c4cc(F)cc(F)c4)ccc3c21 [Example 287]	< 500
CC(C)S(=O)(=O)c1ccc2oc3c(c2c1)CCNC3 [Example 281]	> 1000
O=S(=O)(c1ccc2c3c(oc2c1)CNCC3)c1cccnc1OCC(F)(F)F [Example 440]	< 500
CCCCC1NCCc2c1oc1cc(S(=O)(=O)c3cccc(Cl)c3)ccc21 (centres unmarked) [Example 499]	< 500
CC1(C)NCCc2c1oc1cc(S(=O)(=O)c3cc(Cl)cnc3N)ccc21 [Example 372]	< 500
O=S(=O)(c1cccc(F)c1)c1ccc2oc3c(c2c1)CCNC3CCC(F)(F)F (centres unmarked) [Example 519]	500 to 1000
O=S(=O)(c1cccc(C(F)(F)F)c1)c1ccc2c3c(oc2c1)C1(CCOC1)NCC3 (centres unmarked) [Example 307]	< 500

Compound	Ki [nM]
CC12CCNCC1Oc1cc(S(=O)(=O)c3cncc(Cl)c3)ccc12 (centres unmarked) [Example 430]	< 500
O=S(=O)(c1ccc2c3c(oc2c1)CNCC3)c1cccnc1Cl [Example 436]	< 500
O=[N+]([O-])c1ccc(S(=O)(=O)c2ccc3oc4c(c3c2)CCNC4)cc1 [Example 253]	> 1000
O=S(=O)(c1cncc(Cl)c1)c1ccc2c(c1)OC1CNCCC21 (centres unmarked) [Example 392]	< 500
Cc1ncccc1S(=O)(=O)c1ccc2c3c(oc2c1)C(C)(C)NCC3 [Example 375]	< 500
CC12CCN(C3CCCC3)CC1Oc1ccc(OS(=O)(=O)Cc3ccccc3)cc12 (centres unmarked) [Example 806]	> 1000
CC12CCN(Cc3ccccc3)CC1Oc1ccc(OS(=O)(=O)Cc3ccccc3)cc12 (centres unmarked) [Example 808]	> 1000
O=S(=O)(c1ccccc1)c1ccc2c3c(oc2c1)C1(CCCOC1)NCC3 (single isomer, unassigned) [Example 544, 7-(Phenylsulfonyl)-3,4,5′,6′-tetrahydro-2H,4′H-spiro[1-benzofuro[2,3-c]pyridine-1,3′-pyran]hydrochloride]	500 to 1000
Cc1c(S(=O)(=O)c2ccc3c4c(oc3c2)C(C)(C)NCC4)ccc[n+]1[O-] [Example 374]	> 1000
O=S(=O)(c1ccc(OC(F)(F)F)cc1)c1ccc2oc3c(c2c1)CCNC3 [Example 275, 6-{[4-(trifluoromethoxy)phenyl]sulfo-nyl}-1,2,3,4-tetrahydro[1]benzofuro[2,3-c]pyridine]	500 to 1000
CC12CCNCC1Oc1ccc(OS(=O)(=O)c3cc4ccccc4o3)cc12 (centres unmarked) [Example 764]	500 to 1000
Cc1cccc(S(=O)(=O)c2ccc3c(c2)OC2CNCCC32C)n1 (racemic) [Example 6, 4a-methyl-7-[(6-methylpyridin-2-yl)sulfonyl]-1,2,3,4,4a,9a-hexahydro[1]benzofuro[2,3-c]pyridine]	> 1000
O=S(=O)(c1cccc(F)c1)c1ccc2c3c(oc2c1)C1CCN1CC3 (centres unmarked) [Example 616, 8-[(3-Fluorophenyl)sulfonyl]-1,4,5,10b-tetrahydro-2H-azeto[1,2-a][1]benzofuro[2,3-c]pyridine]	< 500
7-[(3,5-Difluorophenyl)sulfonyl]-2′,3,3′,4,4a,5′,6′,9a-octahydro-2H-spiro[1-benzofuro[2,3-c]pyridine-1,4′-pyran]hydrochloride [Example 623]	> 1000
O=S(=O)(c1cccc(Cl)c1)c1ccc2c3c([nH]c2c1)C1(CCCOC1)NCC3 (single isomer, unassigned) [Example 316]	< 500
CC1(C)NCCc2c1oc1cc(S(=O)(=O)c3cccc4c3OC(F)(F)O4)ccc21 [Example 465]	< 500
O=S(=O)(c1cccc(F)c1)c1ccc2c3c(oc2c1)C1(CCOCC1F)NCC3 (single isomer, unassigned) [Example 54, 3′-Fluoro-7-[(3-fluorophenyl)sulfonyl]-2′,3,3′,4,5′,6′-hexahydro-2H-spiro[1-benzofuro[2,3-c]pyridine-1,4′-pyran]]	< 500
